According to ChEMBL document CHEMBL1125207, “Monoterpenic fragment analogues of aplasmomycin as potential antimalarial” (1991):

Legend:
Type in all cases: functional
Plasmodium berghei [1] = test: In vivo antimalarial activity against Plasmodium berghei in mice (Mus musculus) at 20 mg/kg dose as mean survival time
Plasmodium berghei [2] = test: In vivo antimalarial activity against Plasmodium berghei in mice (Mus musculus) at 40 mg/kg dose as mean survival time after 60 days
Plasmodium berghei [3] = test: In vivo antimalarial activity against Plasmodium berghei in mice (Mus musculus) at 40 mg/kg dose as mean survival time
Plasmodium berghei [4] = test: In vivo antimalarial activity against Plasmodium berghei in mice (Mus musculus) at 80 mg/kg dose as mean survival time
Plasmodium berghei [5] = test: In vivo antimalarial activity against Plasmodium berghei in mice (Mus musculus) at 160 mg/kg dose as mean survival time
Plasmodium berghei [6] = test: In vivo antimalarial activity against Plasmodium berghei in mice (Mus musculus) at 160 mg/kg dose as mean survival time of mice (Mus musculus) after 60 days
Plasmodium berghei [7] = test: In vivo antimalarial activity against Plasmodium berghei in mice (Mus musculus) at 20 mg/kg as mean survival time

Compound | Mean survival time (Plasmodium berghei [1]) | Mean survival time (Plasmodium berghei [2]) | Mean survival time (Plasmodium berghei [3]) | Mean survival time (Plasmodium berghei [4]) | Mean survival time (Plasmodium berghei [5]) | Mean survival time (Plasmodium berghei [6]) | Mean survival time (Plasmodium berghei [7])
C[C@@H]1CC[C@H]2[C@@H](C)C(=O)O[C@@H]3O[C@@]4(C)CC[C@@H]1[C@]32OO4 [ARTEMISININ] | 10.8 days | 30.6 days | – | – | – | – | –
CCOC(=O)/C=C/C=C(C)C | 5.4 days | – | 6 days | 7.4 days | 8.8 days | – | –
CCOC(=O)/C=C/C=C(\C)CCC1OC1(C)C (stereo not drawn) | 7.8 days | – | 8.6 days | 9.2 days | 12.6 days | 30.4 days | –
C[C@@H]1CC[C@@H]([C@@H](C)CO)[C@H](O)C1 | – | – | 6.2 days | 7 days | 8.2 days | – | 5.4 days
CCOC(=O)/C=C/C(C)CCC=C(C)C (stereo not drawn) | 5.4 days | – | 6 days | 7.2 days | 8 days | – | –
CCOC(=O)C(O)C1OC(C(C)(C)O)CCC1C (stereo not drawn) | – | – | 7.2 days | 8.4 days | 11.4 days | – | 6.4 days
C[C@@H]1CC[C@H]2[C@@H](C)CO[B-]3(OC[C@H](C)[C@@H]4CC[C@@H](C)C[C@H]4O3)O[C@@H]2C1.[Na+] (stereo partly drawn) | 9 days | – | 9.6 days | 10.8 days | 12.6 days | 28.6 days | –
CCOC(=O)/C=C/CC(C)CCC=C(C)C (stereo not drawn) | 6 days | – | 8.2 days | 10.4 days | 12.4 days | 29.6 days | –
